Legend:
in vivo = settings: female, SW, mouse, iv
Experimental: Tissue samples were prepared by homogenizing a weighed tissue sample in phosphor-buffered saline (PBS, ×1)+1% DTT (×1)+CH3CN (0.1% HCOOH) (×3)), centrifuged at 10,000 rpm×5 min; 150 μL supernatant+90 μL H2O. 100 μL prepared samples were subjected to HPLC, using 5-95% CH3CN (0.1% HCOOH) as the eluent. The running time was 15 min.

[1] = test system: Stage IV metastatic melanoma patients; settings: RECIST, Efficacy Sample
Experimental: Patients were treated until progression of the disease. […] The tumor assessments were performed at baseline, Cycle 2, and every other Cycle thereafter.

Kp at 30 min (in vivo) | concentration at 30 min (in vivo) [µM] | SMILES | CR + PR (95% CI) [1]
~1.64 | ~51 | CN(NC(=O)CC(=O)NN(C)C(=S)C1CC1)C(=S)C1CC1 [Compound (18)] | –
– | – | CC(=O)O[C@H]1C(=O)[C@@]2(C)[C@H]([C@H](OC(=O)c3ccccc3)[C@]3(O)C[C@H](OC(=O)[C@H](O)[C@@H](NC(=O)c4ccccc4)c4ccccc4)C(C)=C1C3(C)C)[C@]1(OC(C)=O)CO[C@@H]1C[C@@H]2O [Paclitaxel] | 3.7% (0.1%,

Reference: patent US20100068174A1, “COMBINATION WITH BIS (THIOHYDRAZIDE AMIDES) FOR TREATING CANCER” (Synta Pharmaceuticals Corp., priority 2006, published 2010)
